# From patent US9388147B2 (Receptos, Inc., priority 2009, dated 2016)
# Target: S1P1/EDG1 (Homo sapiens, UniProt P21453)
# Assay: S1P1 CRE-bla CHOK1 reporter assay, inhibition of Forskolin induced cAMP
# Type: cell-based
# Settings: agonist activity range, S1P1 CRE-bla CHOK1, 2 μM Forskolin; read-out: S1P1 ACTIVITY
# How it was run: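 Read-out is a FRET β-lactamase substrate (2 h, room temperature) after 4 h, 37 °C compound treatment under 2 μM Forskolin in stable S1P1-transfected CRE-bla CHO-K1 cells. Ten-point curves; non-linear regression gives EC50 for inhibition of Forskolin-stimulated cAMP.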
# S1P1/EDG1, sequence (P21453 whole entry): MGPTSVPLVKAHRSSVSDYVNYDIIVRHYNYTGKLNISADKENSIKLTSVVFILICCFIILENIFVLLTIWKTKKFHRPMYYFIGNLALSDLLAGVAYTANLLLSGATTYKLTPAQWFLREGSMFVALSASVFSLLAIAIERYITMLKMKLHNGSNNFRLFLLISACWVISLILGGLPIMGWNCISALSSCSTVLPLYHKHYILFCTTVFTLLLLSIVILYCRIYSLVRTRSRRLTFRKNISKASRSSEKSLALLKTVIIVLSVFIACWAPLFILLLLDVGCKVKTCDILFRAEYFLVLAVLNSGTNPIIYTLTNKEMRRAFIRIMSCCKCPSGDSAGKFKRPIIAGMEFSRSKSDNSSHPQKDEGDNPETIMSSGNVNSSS
row,SMILES,EC50 [nM]
1,CC(C)Oc1ccc(-c2nc(-c3cccc4c3CC[C@@H]4NC(=O)N3CCOCC3)no2)cc1C#N [Compound 212],0.05 to 0.5
2,CC(C)Oc1ccc(-c2nc(-c3cccc4c3CC[C@H]4NC(=O)N3CCNCC3)no2)cc1C#N [Compound 213],0.5 to 5
3,CC(C)Oc1ccc(-c2nc(-c3cccc4c3CC[C@@H]4NC(=O)N3CCNCC3)no2)cc1C#N [Compound 214],0.05 to 0.5
4,CC(C)Oc1ccc(-c2nc(-c3cccc4c3CC[C@H]4NC(=O)N3CCC[C@H](O)C3)no2)cc1C#N [Compound 215],0.5 to 5
5,CC(C)Oc1ccc(-c2nc(-c3cccc4c3CC[C@@H]4NC(=O)N3CCC[C@H](O)C3)no2)cc1C#N [Compound 216],0.05 to 0.5
6,CC(C)Oc1ccc(-c2nc(-c3cccc4c3CC[C@H]4NC(=O)N3CCC(CO)CC3)no2)cc1C#N [Compound 217],0.5 to 5
7,CC(C)Oc1ccc(-c2nc(-c3cccc4c3CC[C@@H]4NC(=O)N3CCC(CO)CC3)no2)cc1C#N [Compound 218],0.05 to 0.5
8,CC(C)Oc1ccc(-c2nc(-c3cccc4c3CC[C@H]4NC(=O)N3CCC[C@@H](O)C3)no2)cc1C#N [Compound 219],0.5 to 5
9,CC(C)Oc1ccc(-c2nc(-c3cccc4c3CC[C@@H]4NC(=O)N3CCC[C@@H](O)C3)no2)cc1C#N [Compound 220],0.05 to 0.5
10,CC(C)Oc1ccc(-c2nc(-c3cccc4c3CC[C@H]4NC(=O)N3CC[C@@H](N)C3)no2)cc1C#N [Compound 221],0.05 to 0.5
11,CC(C)Oc1ccc(-c2nc(-c3cccc4c3CC[C@H]4NC(=O)N3CC[C@H](N)C3)no2)cc1C#N [Compound 222],0.5 to 5
12,CC(C)Oc1ccc(-c2nc(-c3cccc4c3CC[C@@H]4NC(=O)N3CC[C@@H](N)C3)no2)cc1C#N [Compound 223],0.5 to 5
13,CC(C)Oc1ccc(-c2nc(-c3cccc4c3CC[C@@H]4NC(=O)N3CC[C@H](N)C3)no2)cc1C#N [Compound 224],0.5 to 5
14,COC(=O)CC1CCN(C(=O)N[C@@H]2CCc3c(-c4noc(-c5ccc(OC(C)C)c(C#N)c5)n4)cccc32)CC1 [Compound 225],0.5 to 5
15,COC(=O)CC1CCN(C(=O)N[C@H]2CCc3c(-c4noc(-c5ccc(OC(C)C)c(C#N)c5)n4)cccc32)CC1 [Compound 226],0.05 to 0.5
16,CC(C)Oc1ccc(-c2nc(-c3cccc4c3CC[C@H]4NC(=O)OCCO)no2)cc1C#N [Compound 227],0.05 to 0.5
17,CC(C)Oc1ccc(-c2nc(-c3cccc4c3CC[C@H]4NC(=O)N3CCC(CC(=O)O)CC3)no2)cc1C#N [Compound 228],0.5 to 5
18,CC(C)Oc1ccc(-c2nc(-c3cccc4c3CC[C@@H]4NC(=O)N3CCC(CC(=O)O)CC3)no2)cc1C#N [Compound 229],0.05 to 0.5
19,CC(C)Oc1ccc(-c2nc(-c3cccc4c3CC[C@H]4NC(=O)N3CC[C@@H](O)C3)no2)cc1C#N [Compound 230],0.05 to 0.5
20,CC(C)Oc1ccc(-c2nc(-c3cccc4c3CC[C@H]4NC(=O)N3CC[C@H](O)C3)no2)cc1C#N [Compound 231],0.05 to 0.5
21,CC(C)Oc1ccc(-c2nc(-c3cccc4c3CC[C@@H]4NC(=O)N3CC[C@@H](O)C3)no2)cc1C#N [Compound 232],0.05 to 0.5
22,CC(C)Oc1ccc(-c2nc(-c3cccc4c3CC[C@@H]4NC(=O)N3CC[C@H](O)C3)no2)cc1C#N [Compound 233],0.05 to 0.5
23,COC(=O)C1CCN(C(=O)N[C@@H]2CCc3c(-c4noc(-c5ccc(OC(C)C)c(C#N)c5)n4)cccc32)CC1 [Compound 236],0.05 to 0.5
24,COC(=O)C1CCN(C(=O)N[C@H]2CCc3c(-c4noc(-c5ccc(OC(C)C)c(C#N)c5)n4)cccc32)CC1 [Compound 237],0.05 to 0.5
25,CC(C)Oc1ccc(-c2nc(-c3cccc4c3CC[C@H]4NC(=O)N3CCC(C(=O)O)CC3)no2)cc1C#N [Compound 238],0.05 to 0.5
26,CC(C)Oc1ccc(-c2nc(-c3cccc4c3CC[C@@H]4NC(=O)N3CCC(C(=O)O)CC3)no2)cc1C#N [Compound 239],0.05 to 0.5
27,CC(C)Oc1ccc(-c2nc(-c3cccc4c3CC[C@H]4NC(=O)N3CCC(O)CC3)no2)cc1C#N [Compound 240],0.5 to 5
